In US9492471B2, “Methods of treating a disease or disorder associated with Bruton'S Tyrosine Kinase” (Celgene Avilomics Research, Inc., priority 2013, dated 2016) one finds inhibition and remaining activity data, which are given here for 1 molecule.

The structures appear in SMILES notation. Where two headings read alike, the source gives them in different places.

Holding throughout (test): HotSpot kinase profiling
What all share (format): biochemical

One test addresses T1, COT1/MAP3K8 (Homo sapiens, UniProt P41279).
T1 construct: purchased Reaction Biology Corp
The gist of the method: (§1)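 Radiometric kinase assay with P81 filter capture; each kinase was added to fresh substrate plus cofactors in reaction buffer and incubated 2 h at room temperature. Unreacted phosphate was washed off with 0.1% phosphoric acid before detection; percent inhibition is relative to DMSO control, averaged over replicates.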

The next test addresses T2, ASK1/MAP3K5 (Homo sapiens, UniProt Q99683).
T2 construct: purchased Reaction Biology Corp
T2 sequence (Q99683 1-1374): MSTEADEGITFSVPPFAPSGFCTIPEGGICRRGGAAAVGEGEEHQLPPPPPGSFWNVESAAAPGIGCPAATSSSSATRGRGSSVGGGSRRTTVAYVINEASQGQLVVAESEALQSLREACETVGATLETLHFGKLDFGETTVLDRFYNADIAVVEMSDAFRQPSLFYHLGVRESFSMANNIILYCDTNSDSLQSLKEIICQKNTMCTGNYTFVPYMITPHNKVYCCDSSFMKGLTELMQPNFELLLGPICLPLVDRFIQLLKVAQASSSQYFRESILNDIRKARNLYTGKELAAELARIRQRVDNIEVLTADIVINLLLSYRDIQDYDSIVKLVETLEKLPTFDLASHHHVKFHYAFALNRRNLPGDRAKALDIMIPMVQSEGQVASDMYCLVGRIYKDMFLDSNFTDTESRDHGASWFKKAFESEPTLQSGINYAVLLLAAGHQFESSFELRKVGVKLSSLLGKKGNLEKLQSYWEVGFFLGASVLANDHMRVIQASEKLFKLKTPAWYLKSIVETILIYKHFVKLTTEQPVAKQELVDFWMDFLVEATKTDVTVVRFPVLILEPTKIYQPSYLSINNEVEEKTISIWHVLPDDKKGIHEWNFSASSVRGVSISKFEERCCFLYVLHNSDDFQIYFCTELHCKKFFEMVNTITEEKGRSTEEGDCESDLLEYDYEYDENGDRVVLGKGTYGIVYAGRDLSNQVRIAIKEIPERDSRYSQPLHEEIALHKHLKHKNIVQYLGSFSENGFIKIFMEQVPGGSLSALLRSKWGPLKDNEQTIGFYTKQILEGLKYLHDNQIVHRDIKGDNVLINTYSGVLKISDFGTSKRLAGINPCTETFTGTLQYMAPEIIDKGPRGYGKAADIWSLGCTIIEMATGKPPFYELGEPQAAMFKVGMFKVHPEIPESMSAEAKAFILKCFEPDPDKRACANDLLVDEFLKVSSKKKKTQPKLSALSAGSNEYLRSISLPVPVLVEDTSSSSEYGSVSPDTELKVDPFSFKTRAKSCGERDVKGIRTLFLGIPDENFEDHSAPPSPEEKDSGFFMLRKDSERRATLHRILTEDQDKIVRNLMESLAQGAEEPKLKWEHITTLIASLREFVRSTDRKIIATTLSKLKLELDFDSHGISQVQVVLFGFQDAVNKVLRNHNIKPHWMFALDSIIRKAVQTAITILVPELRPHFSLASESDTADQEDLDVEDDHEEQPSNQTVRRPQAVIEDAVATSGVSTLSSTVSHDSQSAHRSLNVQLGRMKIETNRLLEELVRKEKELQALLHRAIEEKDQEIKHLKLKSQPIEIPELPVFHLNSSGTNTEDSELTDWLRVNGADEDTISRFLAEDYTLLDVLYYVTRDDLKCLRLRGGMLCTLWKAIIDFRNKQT
The method in brief: as §1

In the next test the target is T3, DDR2 (Homo sapiens, UniProt Q16832).
T3 construct: purchased Reaction Biology Corp
T3 sequence (Q16832 22-855): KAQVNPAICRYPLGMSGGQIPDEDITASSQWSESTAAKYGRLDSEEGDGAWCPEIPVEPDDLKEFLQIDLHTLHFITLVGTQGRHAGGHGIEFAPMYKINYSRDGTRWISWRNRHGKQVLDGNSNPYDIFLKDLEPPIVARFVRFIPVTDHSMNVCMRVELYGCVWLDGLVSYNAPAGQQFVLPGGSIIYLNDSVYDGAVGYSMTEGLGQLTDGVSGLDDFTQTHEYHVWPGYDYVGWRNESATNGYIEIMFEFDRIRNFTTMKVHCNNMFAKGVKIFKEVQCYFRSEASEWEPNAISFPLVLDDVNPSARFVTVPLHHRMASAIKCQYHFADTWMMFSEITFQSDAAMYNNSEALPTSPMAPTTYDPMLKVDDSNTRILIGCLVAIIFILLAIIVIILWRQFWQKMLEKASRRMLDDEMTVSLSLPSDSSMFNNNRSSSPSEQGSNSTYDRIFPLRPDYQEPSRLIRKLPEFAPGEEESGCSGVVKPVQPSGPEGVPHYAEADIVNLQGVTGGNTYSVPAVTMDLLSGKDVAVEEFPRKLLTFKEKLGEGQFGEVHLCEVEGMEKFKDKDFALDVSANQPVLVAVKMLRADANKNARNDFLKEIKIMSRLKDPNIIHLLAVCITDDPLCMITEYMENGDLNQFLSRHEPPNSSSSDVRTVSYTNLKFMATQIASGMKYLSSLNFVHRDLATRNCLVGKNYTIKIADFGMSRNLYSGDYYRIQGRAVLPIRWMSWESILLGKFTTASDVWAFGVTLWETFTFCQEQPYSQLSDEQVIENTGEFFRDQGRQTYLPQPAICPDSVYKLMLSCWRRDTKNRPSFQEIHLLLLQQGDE
The gist of the method:
as §1

In a further test the target is T4, CK2a2 (Homo sapiens, UniProt P19784).
T4 construct: purchased Reaction Biology Corp
T4 sequence (P19784 whole entry): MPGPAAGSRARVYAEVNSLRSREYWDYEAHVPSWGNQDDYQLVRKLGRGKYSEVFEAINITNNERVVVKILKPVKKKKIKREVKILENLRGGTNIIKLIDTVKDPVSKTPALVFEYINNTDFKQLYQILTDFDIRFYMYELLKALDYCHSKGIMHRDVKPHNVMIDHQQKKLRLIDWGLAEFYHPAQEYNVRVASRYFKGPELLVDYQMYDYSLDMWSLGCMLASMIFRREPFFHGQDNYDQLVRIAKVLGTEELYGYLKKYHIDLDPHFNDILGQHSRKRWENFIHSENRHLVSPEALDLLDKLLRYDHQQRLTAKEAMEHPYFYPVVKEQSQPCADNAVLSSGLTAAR
The method in brief: as §1

Where [1] appears, read: read-out: % Enzyme Activity (relative to DMSO controls) Run 1.
Setting [2] is: read-out: % Enzyme Activity (relative to DMSO controls) Run 2.

T1 sequence (P41279 whole entry): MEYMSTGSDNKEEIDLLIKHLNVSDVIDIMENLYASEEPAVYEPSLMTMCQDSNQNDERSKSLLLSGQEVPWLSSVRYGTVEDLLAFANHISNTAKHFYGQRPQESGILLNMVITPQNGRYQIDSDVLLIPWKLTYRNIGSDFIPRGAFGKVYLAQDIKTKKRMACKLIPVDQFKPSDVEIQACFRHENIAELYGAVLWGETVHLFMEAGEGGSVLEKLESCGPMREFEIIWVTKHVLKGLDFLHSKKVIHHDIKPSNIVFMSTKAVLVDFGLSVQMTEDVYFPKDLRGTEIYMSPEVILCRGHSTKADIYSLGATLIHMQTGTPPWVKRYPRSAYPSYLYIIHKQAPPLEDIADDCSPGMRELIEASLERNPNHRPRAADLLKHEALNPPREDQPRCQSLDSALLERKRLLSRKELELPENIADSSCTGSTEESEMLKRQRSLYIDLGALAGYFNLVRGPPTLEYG

What is called inhibition is the drop in the measured response relative to a control, in per cent. Turning to `C=CC(=O)Nc1cccc(Nc2nc(Nc3ccc(OCCOC)c(F)c3)ncc2F)c1` [Compound 2], the inhibition at 3 µM at COT1/MAP3K8 was -1.33%; on ASK1/MAP3K5, -1.62%; on DDR2 it was -3.87%; against CK2a2, -1.81%. Also, the remaining activity at 3 µM came out at 102% on COT1/MAP3K8 (setting [1]); 101% on COT1/MAP3K8 (setting [2]); 101% on ASK1/MAP3K5 (setting [1]); 102% on ASK1/MAP3K5 (setting [2]); 103% on DDR2 (setting [1]); 105% at DDR2 (setting [2]). In addition, the remaining activity at 3 µM stood at 98.2% on CK2a2 (setting [1]) and 105% at CK2a2 (setting [2]).
